How the values were obtained:
[1] = system: LAPC-4 prostate cancer cells; test: Apoptosis as sub-G1 fraction by FACS of PI-stained cells; format: cell-based, human; conditions: for percentage of sub-G1 cells (apoptosis): 48 hours
Method: (§1) Cell Cultures and Treatments. LAPC-4 prostate cancer cells (provided by Dr. Charles Sawyers, UCLA) were cultured in phenol red free RPMI 1640 (Life Technologies, Rockville, Md.) supplemented with 10% fetal bovine serum (Gemini Bio-Products, Woodland, Calif.) at 37° C. in a humidified atmosphere with 5% CO2.
Detection of Apoptosis. Flow cytometry analysis (FACS) analysis of propidium iodide (PI)-stained cells was used to quantify the percentage of apoptotic cells as the fraction of cells with a hypodiploid amount of DNA (Sub-G1). Cells were fixed and permeabilized with 100% ice-cold ethanol at 4° C. overnight. The cells were resuspended in 500 μl of buffer (phosphate buffered saline (PBS), 5 mM EDTA) and incubated with 200 μg/ml RNase A for 30 min at room temperature and then 50 μg/ml PI for 10 min at room temperature. The cell cycle distribution was analyzed using Facstar flow cytometry (Becton-Dickinson, San Jose, Calif.). Cleavage of Caspase-3 as a marker of caspase-mediated apoptosis was also detected by immunoblot analysis (see below).

[2] = system: LAPC-4 tumors; test: Selenite and radiation combination therapy in mice with LAPC-4 tumors; format: in vivo
[3] = system: LAPC-4 prostate cancer cells; test: MTS cell proliferation assay; format: cell-based, human; conditions: 48 hours
Method: as §1
Cell proliferation assay. Cells were seeded in 96-well plates (10,000 cells/well) and treated with selenite for 48 hours. Cell survival was assayed using the CellTiter 96 AQueous One Solution Cell Proliferation Assay (Promega, Madison, Wis.). The MTS tetrazolium solution was added directly to the wells, incubated at 37° C. for 3 hours, and then the absorbance was read at 490 nm with a 96 well plate reader (Vmax Kinetic Microplate Reader, Molecular Devices, Sunnyvale, Calif.).

[4] = system: LAPC-4 cells; test: Clonogenic survival assay; format: cell-based, human
Method: (§2) Clonogenic Survival Assays. In Examples 1-4 below, LAPC-4 cells were treated with or without selenite for 6 hours prior to receiving 2 Gy of ionizing radiation. In other Examples, LAPC-4 and DU 145 cells were treated with 10 μM selenite for 6 or 12 hours treatment with 2 or 5 Gy of γ-irradiation.
(§3) Following irradiation cells were trypsinized, counted, and seeded in triplicate into 60 mm dishes. At least two dilutions of cells were used for each treatment group. Plated cells were allowed to grow for 14 or 17 days before being stained with 0.25% crystal violet in 75% ethanol. Resulting colonies with greater than 50 cells were scored. The surviving fraction was calculated as the plating efficiency of treated cells divided by the plating efficiency of untreated cells. SF2 is the survival fraction of exponentially growing cells that were irradiated at the clinically relevant dose of 2 Gy. The SF2 enhancement ratio (SF2 ER) is defined here as the SF2 without treatment divided by the SF2 for cells treated with selenite.

[5] = system: LAPC-4 cells; test: GSH-reductase recycling assay, intracellular GSH and GSSG; format: cell-based, human; conditions: 10 μM selenite
Method: Determination of Intracellular GSH and GSSG Content. The determination of intracellular GSH and GSSG content following exposure to selenite was performed using the GSH-reductase recycling assay (Vandeputte et al., Cell Biol Toxicol, 10: 415-421 (1994)). This assay measures the reaction of GSH with 5,5′-dithiobis(2-nitrobenzoic acid) (DTNB). Briefly, cells (floating and adherent) were rinsed in cold stock buffer (143 mM sodium phosphate, 6.3 mM EDTA, pH7.4), and lysed by repeated freeze thawing in 130 μl of 10 mM HCl. Following lysis a 10 μl sample was removed and used for protein determination. Proteins were precipitated on ice for 15 min with 30 μl of 6.5% sulfosalicyclic acid and centrifuged for 15 min at 2000×g and 4° C. The supernatants were collected and stored at −80° C. until assayed. The 96-well plate assay was prepared by mixing 20 μl of sample or known GSH standard, 20 μl of stock buffer, 200 μl of reaction buffer (1 mM 5,5′-dithiobis(2-nitrobenzoic acid (DTNB) and 0.34 mM nicotinamide adenine dinucleotide phosphate (NADPH) in stock buffer), and 40 μl of GSH reductase (8.5 U/ml). The reaction was recorded kinetically at 30-sec intervals for 6 min at a wavelength of 405 nm GSSG was measured following GSH derivatization with 2-vinylpyridine and triethanolamine. GSSG was measured as described above using known GSSG standards. The concentration of GSH and GSSG was expressed as nmol/mg of protein.

[6] = system: prostate cancer cells (E-CA-3); test: GSH-reductase recycling assay, GSH:GSSG ratio; format: cell-based, human; conditions: 25 μM selenite, 48 hours
Description: (§4) Primary prostate epithelial cell strains from normal prostate (PZ) and prostate cancer (CA) tissue were provided by Dr. Donna Peehl (Stanford University) using well established methods she has previously described (Peehl, Human prostatic epithelial cells. In: Culture of Epithelial Cells, 2nd edition, Freshney, R. I. and Freshney, M. G. (eds.), Wiley-Liss, Inc., N.Y., 171-194 (2002)). Three matched pairs of normal and cancer cell strains were available for study (E-PZ/CA-1, E-PZ/CA-2, and E-PZ/CA-3). Normal cell strains were obtained from a region of the prostate peripheral zone not involved in cancer. E-CA-1, E-CA-2, and E-CA-3 cell strains were derived from prostate carcinomas. Cells were treated at 50-70% confluence.
(§5) Determination of Intracellular GSH and GSSG Content. […] The 96-well plate assay was prepared by mixing 20 μl of sample or known GSH standard, 20 μl of stock buffer, 200 μl of reaction buffer (1 mM 5,5′-dithiobis(2-nitrobenzoic acid (DTNB) and 0.34 mM nicotinamide adenine dinucleotide phosphate (NADPH) in stock buffer), and 40 μl of GSH reductase (8.5 U/ml). The reaction was recorded kinetically at 30-sec intervals for 6 min at a wavelength of 405 nm GSSG was measured following GSH derivatization with 2-vinylpyridine and triethanolamine. GSSG was measured as described above using known GSSG standards. The concentration of GSH and GSSG was expressed as nmol/mg of protein.

[7] = system: normal prostate cells (E-PZ-3); test: GSH-reductase recycling assay, GSH:GSSG ratio; format: cell-based, human; conditions: 25 μM selenite, 48 hours
Description: as §4, §5

[8] = system: DU 145 cells; test: Clonogenic survival assay; format: cell-based; conditions: for SF2: normalized for killing from selenite alone, radiation alone 0.554; for surviving fraction, selenite alone: assessed at 17 days
Method: as §2, §3

[9] = system: DU 145 prostate cancer cells; test: GSH-reductase recycling assay, GSH:GSSG ratio; format: cell-based; conditions: 10 μM selenite, basal level 146.4±14.0
Method: DU 145 prostate cancer cells (American Type Culture Collection, Rockville, Md.) were cultured in RPMI 1640 (+phenol red) supplemented with 10% fetal bovine serum. When the cells reached 50% confluence the media was replaced and selenite was added at the noted concentrations.
as §5, with “Content. The determination of intracellular GSH and GSSG content following exposure to selenite was performed using the GSH-reductase recycling assay (Vandeputte et al., Cell Biol Toxicol, 10: 415-421 (1994)). This assay measures the reaction of GSH with 5,5′-dithiobis(2-nitrobenzoic acid) (DTNB).” for “Content.”

SMILES: CCCCS(=N)(=O)CCC(N)C(=O)O (centres unmarked) [BSO, buthionine sulfoximine, reference compound]
- induction of apoptosis ([1]; BSO 500 μM for 72 hrs): did not induce significant apoptosis

SMILES: O=[Se](O)O [selenite, Sodium selenite]
- tolerability ([2]; selenite treated mice): very well tolerated
- weight loss ([2]; selenite treated mice compared with local tumor irradiation alone): no significant weight loss
- percentage of sub-G1 cells (apoptosis) ([1]; 10 μM selenite): 14.5%
- percentage of sub-G1 cells (apoptosis) ([1]; 25 μM selenite): 26.1%
- Cell proliferation ([3]; 10 μM selenite): 53.3 % of control
- Cell proliferation ([3]; 25 μM selenite): 33.4 % of control
- SF2 ([4]; 10 μM selenite 6 hr pre 2 Gy γ-irradiation, normalized for killing from selenite alone, radiation alone 0.244): 0.056
- SF2 ER ([4]; 10 μM selenite 6 hr pre radiation, SF2 without treatment divided by SF2 with selenite): 4.36
- surviving fraction, selenite alone ([4]; 10 μM selenite for 6 hours, no radiation): 0.431±0.021
- decrease of GSH:GSSG ratio ([5]; 6 hours): 88.3%
- GSH:GSSG ratio ([5]; 6 hours, untreated 129.4±13.6): 15.1±2.3
- total GSH level ([5]; 48 hours, basal level 52.1±5.6): 11.8 ± 2.1 nmol/mg
- decrease of GSH:GSSG ratio [6]: 65.9%
- decrease of GSH:GSSG ratio [7]: 41.1%
- SF2 ([8]; 10 μM selenite 6 hr pre 2 Gy γ-irradiation): 0.343
- SF2 ER ([8]; 10 μM selenite 6 hr pre radiation): 1.62
- SF2 ([8]; 10 μM selenite 12 hr pre 2 Gy γ-irradiation): 0.199
- SF2 ER ([8]; 10 μM selenite 12 hr pre radiation): 2.78
- surviving fraction, selenite alone ([8]; 10 μM selenite for 6 hours): 0.941
- surviving fraction, selenite alone ([8]; 10 μM selenite for 12 hours): 0.409
- GSH:GSSG ratio ([9]; 6 hours): 57.5±13.8
- GSH:GSSG ratio ([9]; 12 hours): 5.7±1.8

— patent US9248149B2, “Methods for treating a neoplastic disease in a subject using inorganic selenium-containing compounds” (THE BOARD OF TRUSTEES OF THE LELAND STANFORD JUNIOR …, priority 2003, dated 2016)
